Source: patent US10119972B2, “Reactive labelling compounds and uses thereof” (Academia Sinica, priority 2014, dated 2018)
Entries after “also recorded” stand apart in the source; their conditions may differ.

Assays:
[1] = SPAAC reaction kinetics of 101 with benzyl azide monitored by 1H-NMR; assay type: physicochemical; conditions: 101 with benzyl azide (1:1), 20 mM, CD3CN, 25° C.
Experimental: To evaluate the feasibility of compound 101 as a reagent for the SPAAC-based fluorescence labeling, its reaction scope and kinetics using benzyl azide as a model substrate was first studied. The SPAAC reaction of 101 with benzyl azide in acetonitrile was completed in 2 h at room temperature to give triazole 111 in 95% yield (Scheme 100). The reactivity of 101 with benzyl azide (1:1) in CD3CN was determined by integration of multiple chemical shifts in the ^1H-NMR spectrum to yield a second-order rate constant of 0.012 M^−1s^−1 at 25° C. We also observed the cycloaddition reaction between 101 and N-azidoacetylmannosamine (ManNAz), proceeding similarly to give triazole 112 with a second-order rate constant of 0.010 M^−1s^−1 at 25° C. in a solution of CD3OD-D2O (5:1, v/v) (FIGS. 17 and 18).
Part A: Compound 101 and benzyl azide were predissolved in CD3CN, and then mixed at equimolar concentration of 20 mM. The reaction was monitored by ^1H-NMR analysis over a period of 1 h. The concentration of each component was determined, based on the concentration of initial compound 101, by integration at multiple chemical shifts in the ^1H-NMR spectrum. […] (M^−1) vs. time (sec), a second order rate constant in unit of M^−1s^−1 was determined using linear regression analysis. […]
FIG. 17 describes a Plot of 1/[101] vs. time for the reaction of compound 101 and benzyl azide in CD3CN as monitored by ^1H-NMR.

[2] = Fluorescence time course of ligation of 101 with ManNAz; assay type: physicochemical; conditions: 101 (30 μM) with ManNAz (30 μM), PBS buffer containing 10% DMSO
Experimental: To probe the SPAAC reaction under the conditions that would be more typical for biomolecule labeling, we investigated the fluorescence response and time course for the reaction of 101 with ManNAz.
FIG. 16 describes (a) Absorption and Fluorescence emission spectra (λex=330 nm) of 101 (black), 111 (blue) and 112 (red) (45 μM, PBS buffer containing 10% DMSO, pH 7.4). (b) Time course of normalized fluorescence intensity at 435 nm (λex=330 nm) for the ligation reaction of 101 (30 μM) with N-azidoacetylmannosamine (30 μM) in PBS buffer containing 10% DMSO.
A solution of probe 101 (0.075 μmol) and N-azidoacetylmannosamine (0.075 μmol) in a mixture of 10% DMSO in PBS buffer (2.5 mL) was incubated at 37° C. The fluorescence emission intensity at 435 nm upon excitation at 330 nm was monitored in 5 min intervals. For each point the fluorescence intensity was measured over a period of 5 sec and averaged over a total of 3 points. In a control experiment the same conditions were used except that N-acetylmannosamine (0.075 μmol) was added to the solution.

CL1-5 cells = assay: Live cell imaging of azido-glycoconjugates, no-wash and no-fixation; assay type: cell-based; conditions: for cell permeability: live CL1-5 cells, intracellular labeling
Experimental: The performance of 101 in live cell imaging was evaluated. For this purpose, highly sialylated lung cancer cells, CL1-5, were cultured in the presence of peracetylated N-azidoacetylmannosamine (Ac4ManNAz) for 3 days to metabolically produce the azido-sialic acid expressed cells. As a negative control, CL1-5 cells were grown in the presence of peracetylated N-acetylmannosamine (Ac4ManNAc). A time course experiment was conducted by exposing the cells at 30-min intervals under no-wash and no-fixation conditions (FIG. 19, FIG. 22). […] Furthermore, the localization of azido-containing glycoconjugates in living cells was visualized by confocal microscopy. The cells labeled by probe 101 were subsequently stained with anti-GRASP65 followed by FITC-conjugated anti-rabbit for Golgi and propidium iodide (PI, a nuclei marker).
Toward this goal, CL1-5 cells were incubated with Ac4ManNAz for 1 h and subsequently removed excess Ac4ManNAz. We then performed the imaging to monitor the trafficking of the sialylated glycoconjugates. […] However, the appearance of blue fluorescence signal was detected on the cell surface after 5 h. The intensity of fluorescence increased over time, and reached saturation at 8 h (FIG. 21 and FIG. 23).
To observe the fluorescence labeled azido-glycoconjugates in cells, CL1-5 cells were seeded on chamber slide (2.5×10^4 cells/0.5 mL per wells) and incubated in culture medium (RPMI-1640 supplemented with 10% FBS, 100 U/mL penicillin, 100 μg/mL streptomycin, 1 mM L-glutamine and 1 mM sodium pyruvate) with either 200 μM of control sugar (peracetylated N-acetylmannosamine, Ac4ManNAc) or azido-sugar (peracetylated N-azidoacetylmannosamine, Ac4ManNAz) for 3 days.
For Time-lapse imaging of live cells, experiments were carried out using a confocal microscope (TCS-SP5-MP-SMD, Leica) equipped with an incubator to keep the cells in culture conditions. Prewashed cells were incubated with 100 μM of probe 101 in PBS with 10% DMSO and fluorescence imaging of live cells from the previous experiment over 1.5 h. The images were acquired at 450 nm emission and in 5-min intervals.
To observe the fluorescence labeled sialylconjugates in cells dependent on different time, CL1-5 cells were seeded on chamber slide (2.5×10^4 cells/0.5 mL per wells) and incubated in culture medium (RPMI-1640 supplemented with 10% FBS, 100 U/mL penicillin, 100 μg/mL streptomycin, 1 mM L-glutamine and 1 mM sodium pyruvate) with 500 μM of azido-sugar (peracetylated N-azidoacetylmannosamine, Ac4ManNAz) for 1 h. Cells were washed three times with PBS and then incubated in culture medium. […] For fluorescence imaging of live cells, experiments were carried out using a confocal microscope (TCS-SP5-MP-SMD, Leica) equipped with an incubator to keep the cells in culture conditions.

living cells = assay: Cytotoxicity of probe in living cells; assay type: cell-based

cell permeability (CL1-5 cells): cell-permeable
cell permeability (CL1-5 cells; listed as coumOCT): cell-permeable probe
Structure (SMILES): O=c1ccc2cc3c(cc2o1)C#CCCCC3 [Compound 101, 6,7,8,9-Tetrahydro-10,11-didehydro-cycloocta[g]chromen-2(2H)-one]
second-order rate constant [1]: 0.012 M⁻¹ s⁻¹
time for fluorescence intensity to reach a plateau ([2]; 435 nm (λex=330 nm)): less than 1 h
ManNAz consumed ([2]; in 40 min): more than 90%
incubation time to saturation of fluorescence intensity (CL1-5 cells; Ac4ManNAz treated CL1-5 cells, 100 μM probe, no-wash and no-fixation): 1.5 h
background labeling (CL1-5 cells; control cells grown with Ac4ManNAc): background labeling is negligible
cytotoxicity (living cells): low cytotoxicity; also recorded: nontoxic
